Measured values reported in ChEMBL document CHEMBL4507305, “Data for DCP probe TP-024” (2021).
Calls of active or inactive are those of the source. The rule behind the calls is not given here.

Experiments:
[1] = molecular target: Receptor tyrosine-protein kinase erbB-3 (Homo sapiens) (UniProt P21860); conditions: Compound concentration 1000.0 nM
[2] = molecular target: Dual specificity protein kinase TTK (Homo sapiens) (UniProt P33981); conditions: Compound concentration 1000.0 nM
[3] = molecular target: Dual specificity protein kinase CLK4 (Homo sapiens) (UniProt Q9HAZ1); conditions: Compound concentration 1000.0 nM
[4] = molecular target: T1, G protein-coupled receptor (Rattus norvegicus, UniProt Q9WU09); assay: CHO-based cAMP assay (rat)
T1 sequence (Q9WU09 whole entry): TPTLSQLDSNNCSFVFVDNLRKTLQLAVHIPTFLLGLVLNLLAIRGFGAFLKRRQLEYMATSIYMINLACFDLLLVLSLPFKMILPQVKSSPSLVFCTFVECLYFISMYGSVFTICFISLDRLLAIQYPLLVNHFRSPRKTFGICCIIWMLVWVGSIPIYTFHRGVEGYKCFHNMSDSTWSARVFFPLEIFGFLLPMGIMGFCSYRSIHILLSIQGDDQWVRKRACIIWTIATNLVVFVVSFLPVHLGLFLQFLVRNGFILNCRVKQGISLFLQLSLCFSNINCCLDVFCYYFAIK

[5] = molecular target: ALK tyrosine kinase receptor (Homo sapiens) (UniProt Q9UM73); conditions: Compound concentration 1000.0 nM
[6] = molecular target: Serine/threonine-protein kinase TAO3 (Homo sapiens) (UniProt Q9H2K8); conditions: Compound concentration 1000.0 nM
Sequence of Serine/threonine-protein kinase TAO3 (Homo sapiens) (Q9H2K8 whole entry): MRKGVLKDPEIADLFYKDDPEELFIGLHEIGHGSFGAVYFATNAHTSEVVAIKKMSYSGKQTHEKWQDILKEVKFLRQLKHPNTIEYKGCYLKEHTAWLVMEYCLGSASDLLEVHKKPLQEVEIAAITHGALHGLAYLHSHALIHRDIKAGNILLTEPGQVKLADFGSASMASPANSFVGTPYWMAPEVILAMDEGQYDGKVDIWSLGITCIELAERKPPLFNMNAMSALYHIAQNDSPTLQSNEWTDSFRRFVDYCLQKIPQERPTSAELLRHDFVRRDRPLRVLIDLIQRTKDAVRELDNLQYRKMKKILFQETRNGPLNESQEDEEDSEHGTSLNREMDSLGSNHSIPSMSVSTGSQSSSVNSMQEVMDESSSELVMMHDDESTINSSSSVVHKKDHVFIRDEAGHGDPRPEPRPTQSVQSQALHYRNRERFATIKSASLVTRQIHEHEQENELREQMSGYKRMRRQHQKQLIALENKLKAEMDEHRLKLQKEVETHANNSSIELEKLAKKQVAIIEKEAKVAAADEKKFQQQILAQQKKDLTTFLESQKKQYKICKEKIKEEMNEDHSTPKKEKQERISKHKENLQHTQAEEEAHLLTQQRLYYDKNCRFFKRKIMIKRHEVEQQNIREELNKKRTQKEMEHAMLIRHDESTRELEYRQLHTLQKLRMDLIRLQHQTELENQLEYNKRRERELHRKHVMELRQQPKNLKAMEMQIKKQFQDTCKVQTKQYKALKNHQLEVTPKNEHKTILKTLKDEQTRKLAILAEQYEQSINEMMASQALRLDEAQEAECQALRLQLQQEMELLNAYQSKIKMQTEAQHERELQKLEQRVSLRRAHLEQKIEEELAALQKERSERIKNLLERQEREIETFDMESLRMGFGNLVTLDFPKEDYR

[7] = molecular target: Proto-oncogene tyrosine-protein kinase Src (Homo sapiens) (UniProt P12931); conditions: Compound concentration 1000.0 nM
Sequence of Proto-oncogene tyrosine-protein kinase Src (Homo sapiens) (P12931 2-536 limits assumed): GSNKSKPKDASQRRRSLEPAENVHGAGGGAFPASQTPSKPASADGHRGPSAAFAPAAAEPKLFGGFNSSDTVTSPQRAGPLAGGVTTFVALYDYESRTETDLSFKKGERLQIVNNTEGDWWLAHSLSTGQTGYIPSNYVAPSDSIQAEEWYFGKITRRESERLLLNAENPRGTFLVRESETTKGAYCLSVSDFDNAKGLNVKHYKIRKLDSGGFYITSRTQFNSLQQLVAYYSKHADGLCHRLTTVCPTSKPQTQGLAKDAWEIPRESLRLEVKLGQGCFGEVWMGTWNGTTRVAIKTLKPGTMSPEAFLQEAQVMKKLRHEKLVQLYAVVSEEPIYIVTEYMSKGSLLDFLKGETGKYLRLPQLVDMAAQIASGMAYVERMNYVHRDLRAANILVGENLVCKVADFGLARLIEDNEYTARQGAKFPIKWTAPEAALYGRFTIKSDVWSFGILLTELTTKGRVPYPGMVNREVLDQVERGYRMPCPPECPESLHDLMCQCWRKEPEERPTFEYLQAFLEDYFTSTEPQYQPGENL

[8] = molecular target: Ephrin type-A receptor 5 (Homo sapiens) (UniProt P54756); conditions: Compound concentration 1000.0 nM
Sequence of Ephrin type-A receptor 5 (Homo sapiens) (P54756 whole entry): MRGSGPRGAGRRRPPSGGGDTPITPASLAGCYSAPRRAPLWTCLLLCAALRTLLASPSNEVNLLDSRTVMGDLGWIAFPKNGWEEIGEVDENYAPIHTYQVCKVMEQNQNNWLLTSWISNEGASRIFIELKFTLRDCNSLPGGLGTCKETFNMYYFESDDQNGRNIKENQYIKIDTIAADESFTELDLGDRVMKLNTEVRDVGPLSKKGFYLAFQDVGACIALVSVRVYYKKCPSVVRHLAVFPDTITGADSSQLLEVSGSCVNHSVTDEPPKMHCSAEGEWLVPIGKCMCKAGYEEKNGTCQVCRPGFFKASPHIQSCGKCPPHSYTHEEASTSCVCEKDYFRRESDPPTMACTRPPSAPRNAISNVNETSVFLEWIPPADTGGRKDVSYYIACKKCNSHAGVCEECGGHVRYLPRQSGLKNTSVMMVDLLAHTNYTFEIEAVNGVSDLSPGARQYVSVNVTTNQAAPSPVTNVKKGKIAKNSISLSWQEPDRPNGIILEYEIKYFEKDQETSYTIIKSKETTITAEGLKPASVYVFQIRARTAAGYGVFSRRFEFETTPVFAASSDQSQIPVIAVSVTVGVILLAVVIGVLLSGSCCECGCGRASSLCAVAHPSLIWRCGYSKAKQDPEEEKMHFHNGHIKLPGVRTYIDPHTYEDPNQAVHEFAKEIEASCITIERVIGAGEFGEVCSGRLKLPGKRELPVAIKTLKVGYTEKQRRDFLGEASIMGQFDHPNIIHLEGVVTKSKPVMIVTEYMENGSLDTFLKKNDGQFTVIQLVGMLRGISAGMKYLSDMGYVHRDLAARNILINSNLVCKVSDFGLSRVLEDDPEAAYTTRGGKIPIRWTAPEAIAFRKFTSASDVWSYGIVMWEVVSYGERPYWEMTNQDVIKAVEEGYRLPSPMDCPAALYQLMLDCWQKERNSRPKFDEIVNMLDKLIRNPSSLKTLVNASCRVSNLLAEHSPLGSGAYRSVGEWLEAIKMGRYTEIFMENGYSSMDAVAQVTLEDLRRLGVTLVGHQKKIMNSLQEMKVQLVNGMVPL

[9] = molecular target: Histamine H3 receptor (Homo sapiens) (UniProt Q9Y5N1); conditions: Compound concentration 10.0 uM
Sequence of Histamine H3 receptor (Homo sapiens) (Q9Y5N1 whole entry): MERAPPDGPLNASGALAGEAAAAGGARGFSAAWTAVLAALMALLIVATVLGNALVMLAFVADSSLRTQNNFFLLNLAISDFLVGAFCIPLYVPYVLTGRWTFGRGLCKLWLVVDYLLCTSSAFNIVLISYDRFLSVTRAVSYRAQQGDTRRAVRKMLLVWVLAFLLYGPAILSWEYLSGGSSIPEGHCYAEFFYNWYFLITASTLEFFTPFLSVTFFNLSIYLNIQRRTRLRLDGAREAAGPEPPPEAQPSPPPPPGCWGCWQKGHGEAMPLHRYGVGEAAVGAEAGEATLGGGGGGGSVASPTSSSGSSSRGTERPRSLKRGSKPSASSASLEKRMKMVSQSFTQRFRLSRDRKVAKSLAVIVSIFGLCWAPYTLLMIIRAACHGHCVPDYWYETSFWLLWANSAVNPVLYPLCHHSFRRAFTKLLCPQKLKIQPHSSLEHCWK

[10] = molecular target: Serine/threonine-protein kinase Chk1 (Homo sapiens) (UniProt O14757); conditions: Compound concentration 1000.0 nM
[11] = molecular target: Sodium-dependent dopamine transporter (Homo sapiens) (UniProt Q01959); conditions: Compound concentration 10.0 uM
[12] = molecular target: Serine/threonine-protein kinase N2 (Homo sapiens) (UniProt Q16513); conditions: Compound concentration 1000.0 nM
[13] = molecular target: Beta-1 adrenergic receptor (Homo sapiens) (UniProt P08588); conditions: Compound concentration 10.0 uM
Sequence of Beta-1 adrenergic receptor (Homo sapiens) (P08588 whole entry, looked up, canonical isoform): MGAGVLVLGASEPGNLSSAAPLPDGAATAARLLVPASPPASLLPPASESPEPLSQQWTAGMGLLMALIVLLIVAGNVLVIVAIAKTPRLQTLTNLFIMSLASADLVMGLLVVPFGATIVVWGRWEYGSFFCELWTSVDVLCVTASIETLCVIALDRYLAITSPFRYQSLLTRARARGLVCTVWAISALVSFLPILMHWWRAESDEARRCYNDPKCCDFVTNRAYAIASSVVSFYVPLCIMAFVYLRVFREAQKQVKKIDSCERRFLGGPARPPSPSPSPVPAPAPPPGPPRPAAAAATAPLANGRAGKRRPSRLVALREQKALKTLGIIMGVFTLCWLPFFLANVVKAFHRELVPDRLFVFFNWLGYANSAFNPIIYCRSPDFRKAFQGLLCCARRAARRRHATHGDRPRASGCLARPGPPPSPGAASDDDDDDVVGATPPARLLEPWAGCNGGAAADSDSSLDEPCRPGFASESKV

[14] = tested on: Phosphatidylinositol 4,5-bisphosphate 3-kinase catalytic subunit alpha isoform (Homo sapiens), P42336 [E542K]; conditions: Compound concentration 1000.0 nM
[15] = molecular target: T1, G protein-coupled receptor; assay: cAMP increase in rat primary cultured striatal neurons
[16] = tested on: Fibroblast growth factor receptor 3 (Homo sapiens), P22607 [G697C]; conditions: Compound concentration 1000.0 nM
[17] = tested on: Tyrosine-protein kinase ABL1 (Homo sapiens), P00519 [T315I]; conditions: Compound concentration 1000.0 nM
[18] = molecular target: Muscarinic acetylcholine receptor M3 (Homo sapiens) (UniProt P20309); conditions: Compound concentration 10.0 uM
[19] = molecular target: Casein kinase II subunit alpha' (Homo sapiens) (UniProt P19784); conditions: Compound concentration 1000.0 nM
Sequence of Casein kinase II subunit alpha' (Homo sapiens) (P19784 whole entry, looked up): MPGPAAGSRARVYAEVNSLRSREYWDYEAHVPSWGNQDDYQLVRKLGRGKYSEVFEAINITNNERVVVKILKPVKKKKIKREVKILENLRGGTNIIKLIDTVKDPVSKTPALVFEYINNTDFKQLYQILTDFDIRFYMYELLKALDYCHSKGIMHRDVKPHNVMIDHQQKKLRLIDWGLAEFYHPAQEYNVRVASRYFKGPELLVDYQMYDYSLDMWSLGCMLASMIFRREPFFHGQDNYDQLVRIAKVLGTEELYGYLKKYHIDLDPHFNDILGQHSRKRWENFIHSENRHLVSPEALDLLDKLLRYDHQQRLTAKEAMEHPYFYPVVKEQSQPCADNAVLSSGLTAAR

[20] = tested on: Tyrosine-protein kinase ABL1 (Homo sapiens), P00519 [F317I]; conditions: Compound concentration 1000.0 nM
[21] = molecular target: Calcium/calmodulin-dependent protein kinase type 1D (Homo sapiens) (UniProt Q8IU85); conditions: Compound concentration 1000.0 nM
[22] = molecular target: G-protein coupled receptor 52 (Homo sapiens, UniProt Q9Y2T5); assay: CHO-based cAMP assay (human); assay type: functional

Sequence of Dual specificity protein kinase TTK (Homo sapiens) (P33981 whole entry): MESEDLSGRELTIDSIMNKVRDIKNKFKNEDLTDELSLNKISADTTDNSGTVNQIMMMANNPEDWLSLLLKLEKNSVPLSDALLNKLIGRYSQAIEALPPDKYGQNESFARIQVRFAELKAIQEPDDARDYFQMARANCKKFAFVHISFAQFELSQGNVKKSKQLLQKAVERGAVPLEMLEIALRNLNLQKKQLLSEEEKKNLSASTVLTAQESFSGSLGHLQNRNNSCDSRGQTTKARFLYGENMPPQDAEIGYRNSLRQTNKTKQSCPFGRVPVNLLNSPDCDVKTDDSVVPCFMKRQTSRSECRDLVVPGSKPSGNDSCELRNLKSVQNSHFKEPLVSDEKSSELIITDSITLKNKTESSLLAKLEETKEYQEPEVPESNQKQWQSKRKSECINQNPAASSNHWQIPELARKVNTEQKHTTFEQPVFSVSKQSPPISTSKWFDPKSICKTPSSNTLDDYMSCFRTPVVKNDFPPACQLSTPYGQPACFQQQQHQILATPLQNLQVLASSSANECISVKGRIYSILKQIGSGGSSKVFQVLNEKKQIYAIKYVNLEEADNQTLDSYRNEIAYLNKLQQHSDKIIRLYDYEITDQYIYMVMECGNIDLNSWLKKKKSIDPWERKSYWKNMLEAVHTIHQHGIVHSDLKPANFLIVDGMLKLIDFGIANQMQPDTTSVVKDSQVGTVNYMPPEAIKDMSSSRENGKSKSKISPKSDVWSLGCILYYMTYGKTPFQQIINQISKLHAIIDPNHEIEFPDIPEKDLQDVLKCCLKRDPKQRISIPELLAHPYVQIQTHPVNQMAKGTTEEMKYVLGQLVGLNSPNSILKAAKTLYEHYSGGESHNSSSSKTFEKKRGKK

SMILES | residual activity [1] [%] | residual activity [2] [%] | residual activity [3] [%] | residual activity [5] [%] | residual activity [6] [%] | residual activity [7] [%] | residual activity [8] [%] | inhibition [9] [%] | residual activity [10] [%] | residual activity [12] [%] | inhibition [13] [%] | residual activity [14] [%] | residual activity [16] [%] | residual activity [17] [%] | residual activity [19] [%] | residual activity [20] [%] | residual activity [21] [%] | other results
Cc1cc(-n2nc(Cc3cc(F)cc(C(F)(F)F)c3)nc2C)ccc1C(N)=O [TP-024] | 100 | 90 | 96 | 100 | 83 | 95 | 100 | 11.4 | 100 | 100 | 11.8 | 73 | 100 | 98 | 91 | 100 | 96 | EC50 [4]: 134 nM (active); inhibition [11]: 7.33%; EC50 [15]: 151 nM (active); inhibition [18]: 1.72%
Cc1nc(Cc2cccc(C(F)(F)F)c2)sc1-c1ccc(C(N)=O)nc1 [TP-024n] | 100 | 82 | 83 | 99 | 83 | 80 | 100 | 3.48 | 100 | 91 | 7.56 | 66 | 76 | 100 | 96 | 100 | 94 | EC50 [22]: > 1 µM (not active)
